Results on seven compounds are retold here after ChEMBL document CHEMBL1667723, “Biotransformation of turmerones by Aspergillus niger” (J Nat Prod, 2011).

pIC50: −log10 of the molar value.

The target of the first test is T1, Acetylcholinesterase (Homo sapiens, UniProt P22303). The experiment in a line: Inhibition of human erythrocytes acetylcholinesterase after 15 mins at 250 uM relative to control.
T1 sequence (P22303 whole entry): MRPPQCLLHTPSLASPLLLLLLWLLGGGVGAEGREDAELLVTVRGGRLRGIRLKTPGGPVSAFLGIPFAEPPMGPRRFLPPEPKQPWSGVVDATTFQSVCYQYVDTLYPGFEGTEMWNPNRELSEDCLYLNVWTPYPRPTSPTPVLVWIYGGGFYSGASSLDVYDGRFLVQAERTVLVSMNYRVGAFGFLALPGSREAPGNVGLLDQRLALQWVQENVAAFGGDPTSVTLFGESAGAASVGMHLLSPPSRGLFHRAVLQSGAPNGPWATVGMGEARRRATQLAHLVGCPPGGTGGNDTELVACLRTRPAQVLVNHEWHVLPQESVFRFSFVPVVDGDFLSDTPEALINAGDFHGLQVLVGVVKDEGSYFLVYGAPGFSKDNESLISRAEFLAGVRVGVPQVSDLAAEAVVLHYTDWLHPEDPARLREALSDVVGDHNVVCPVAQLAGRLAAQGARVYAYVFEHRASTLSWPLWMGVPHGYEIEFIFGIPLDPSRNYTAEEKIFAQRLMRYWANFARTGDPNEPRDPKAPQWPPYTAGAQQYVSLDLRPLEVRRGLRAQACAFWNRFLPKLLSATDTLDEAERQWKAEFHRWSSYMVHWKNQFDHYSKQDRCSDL
The inhibition is how much of the control response was suppressed. Lower therefore signals a weak effect. Turning to `CC(C)=CC(=O)C[C@](C)(O)c1ccc(C(=O)O)cc1`, the inhibition is 41.9%.
Same read-out and setting: next, `C/C(=C\C(=O)C[C@](C)(O)c1ccc(C(=O)O)cc1)CO`: 34.3%; `CC(C)(O)CC(=O)CC(C)(O)c1ccc(C(=O)O)cc1` (single isomer, unassigned; (+)): 37.6%; `C/C(=C\C(=O)C[C@H](C)c1ccc(C(=O)O)cc1)CO`: 31%.
`Cc1coc(C[C@](C)(O)c2ccc(C(=O)O)cc2)c1` yielded an inhibition of 33.6%.

The target in another test is T1, Acetylcholinesterase. The experiment in a line: Inhibition of human erythrocytes acetylcholinesterase after 15 mins.
As a reminder, the pIC50 is the negative decadic logarithm of the IC50, by convention in mol/L. The low end stands for a high IC50, the high end for a low IC50. As for `CC(C)=CC(=O)C[C@H](C)c1ccc(C)cc1`, the negative-log IC50 (pIC50) was 3.72.
The same measure, in the same setting: next, `Cc1ccc([C@@H](C)CC(=O)CC(C)C)cc1`: 4.09.
